In PMC3893891 (Journal of biomolecular screening, 2012):

What was measured:
Assay type in all cases: biochemical
Settings in all cases: OMFP substrate
[1] = biological target: T1, PPM1A (Homo sapiens, UniProt P35813); experiment: Phosphatase assay of PPM1A
T1 sequence (P35813 1-382): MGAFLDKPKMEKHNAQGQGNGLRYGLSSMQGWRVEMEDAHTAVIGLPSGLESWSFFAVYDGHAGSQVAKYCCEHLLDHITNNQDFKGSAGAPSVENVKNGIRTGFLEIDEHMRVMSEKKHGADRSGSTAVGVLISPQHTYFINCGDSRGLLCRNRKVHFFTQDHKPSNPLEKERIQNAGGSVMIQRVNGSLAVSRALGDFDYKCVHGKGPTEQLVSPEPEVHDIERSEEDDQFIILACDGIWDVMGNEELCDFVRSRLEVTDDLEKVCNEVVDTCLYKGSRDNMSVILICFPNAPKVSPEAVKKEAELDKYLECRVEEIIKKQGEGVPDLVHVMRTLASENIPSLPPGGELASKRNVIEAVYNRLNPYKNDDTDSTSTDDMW

[2] = biological target: T2, Scp1 (Homo sapiens, UniProt Q9GZU7); experiment: Phosphatase assay of Scp1
T2 sequence (Q9GZU7 1-261): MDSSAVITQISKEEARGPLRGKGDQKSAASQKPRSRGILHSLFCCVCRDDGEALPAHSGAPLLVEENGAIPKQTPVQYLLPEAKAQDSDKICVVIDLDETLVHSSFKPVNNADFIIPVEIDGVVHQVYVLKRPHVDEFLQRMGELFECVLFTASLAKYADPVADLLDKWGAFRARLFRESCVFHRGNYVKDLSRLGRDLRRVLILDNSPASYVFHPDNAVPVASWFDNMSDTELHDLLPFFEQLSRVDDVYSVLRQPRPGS

[3] = biological target: T3, PTP1B (Homo sapiens, UniProt P18031); experiment: Phosphatase assay of PTP1B
T3 sequence (P18031 1-435): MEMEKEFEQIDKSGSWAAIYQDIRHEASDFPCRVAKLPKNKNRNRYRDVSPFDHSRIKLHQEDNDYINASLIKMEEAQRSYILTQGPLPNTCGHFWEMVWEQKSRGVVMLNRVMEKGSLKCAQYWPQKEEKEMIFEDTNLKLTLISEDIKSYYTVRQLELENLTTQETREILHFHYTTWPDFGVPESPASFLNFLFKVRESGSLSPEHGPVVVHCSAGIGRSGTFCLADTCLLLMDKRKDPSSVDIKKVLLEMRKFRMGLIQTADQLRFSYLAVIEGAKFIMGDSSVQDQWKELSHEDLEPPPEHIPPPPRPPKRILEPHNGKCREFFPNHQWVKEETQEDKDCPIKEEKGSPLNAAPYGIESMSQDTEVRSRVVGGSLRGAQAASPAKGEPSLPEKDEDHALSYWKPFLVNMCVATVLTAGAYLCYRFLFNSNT

Row | inhibition of PPM1A phosphatase activity [1] | inhibition of Scp1 phosphatase activity [2] | inhibition of PTP1B phosphatase activity [3] | SMILES
1 | does not significantly inhibit | does not significantly inhibit | does not significantly inhibit | O=C(N/N=C/c1ccc(Sc2ccccn2)o1)c1cccc([N+](=O)[O-])c1 [MLS000700592]
2 | does not significantly inhibit | does not significantly inhibit | does not significantly inhibit | O=C(N/N=C/c1ccc(Sc2ccccn2)o1)c1ccccc1 [NCGC00241225]
